Results on 81 compounds are retold here after the METLIN SMRT retention time set (Domingo-Almenara et al. 2019).

The nature of the data set: gradient 5% acetonitrile 3 min, to 50% in 2 min, to 85% in 15 min, held 3 min, 100 µL/min. Conditions: column: Zorbax Extend-C18 2.1 x 50 mm; eluents: water / acetonitrile, 0.1% formic acid. The method in brief: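 Mixtures of ~100 pure standards were chromatographed on a Zorbax Extend-C18 column (2.1 × 50 mm, 1.8 μm) at 100 μL/min using water and acetonitrile, each with 0.1% formic acid. Detection used a quadrupole time-of-flight mass spectrometer in positive and negative ionization mode, and data collection spanned 3 months. Retention time was obtained from adduct peaks picked computationally and each checked manually.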
For `CCOc1ccc(-c2csc(NC(=O)CCn3c(=O)oc4ccccc43)n2)cc1`, the RP-LC retention time stood at 997 s.

Compound `CCn1ncc(NC(=O)c2ccc(Br)cc2)c(N2CCOCC2)c1=O` showed an RP-LC retention time of 884 s.

The compound `Cc1nc(-c2ccc(N3CCN(C(=O)c4ccccc4F)CC3)nc2)sc1C` had an RP-LC retention time of 873 s.

As for `CCCNc1nc(C(=O)OCC)nc2ccccc12`, the RP-LC retention time stood at 626 s.

In turn, `C#CCSc1nc(=O)n2ccc(C)cc2n1` displayed an RP-LC retention time of 645 s.

The compound `O=C(NC1CCS(=O)(=O)C1)c1ccc(C(=O)c2ccccc2)cc1` (stereo unspecified) returned an RP-LC retention time of 675 s.

The compound `O=C(NCc1ccccn1)c1c(-c2ccccc2)nnc2ccccc12` yielded an RP-LC retention time of 609 s.

Consider `CC1(C(=O)NCc2ccccc2)Cn2cnc(C(=O)NCCc3ccccc3)c2C(=O)N1C1CC1` (stereo unspecified), for which the RP-LC retention time stood at 754 s.

Turning to `O=C(C1CCN(c2nc3ccc(-c4cccnc4)nc3s2)CC1)N1CCCCC1`, the RP-LC retention time came out at 652 s.

For the compound `COc1ccc(NC(=O)C2CCN(S(C)(=O)=O)c3cc(C)ccc3O2)cc1Cl` (stereo unspecified), the RP-LC retention time was found to be 957 s.

Take `CN(CC1CCOC1)C(=O)c1ccc(F)cc1F` (stereo unspecified): the RP-LC retention time was found to be 683 s.

Turning to `CCN1C(=O)COc2cc(-c3noc(C(=O)NCCC4=CCCCC4)n3)ccc21`, the RP-LC retention time turned out to be 1120 s.

`Cc1cc(=O)n(CC(C)O)c(-c2ccccc2)n1` (stereo unspecified): the RP-LC retention time stood at 753 s.

Compound `CC1(C(=O)NCc2ccc(F)cc2)CCN(S(=O)(=O)c2ccc(Br)cc2)CC1` showed an RP-LC retention time of 1000 s.

For `O=S(=O)(c1ccccc1C(F)(F)F)N1CCc2nc(-c3ccccc3)ncc2C1`, the RP-LC retention time amounted to 1110 s.

`Cc1cc(C)n(-c2nc(-c3ccccc3)cc(=O)n2CC(=O)N2CCCc3ccccc32)n1`: the RP-LC retention time came to 1040 s.

Compound `CC(=O)c1ccc(NC(=O)c2nc3nc(C)cc(C(F)F)n3n2)cc1` came in with an RP-LC retention time of 722 s.

`COC(=O)c1cn(CC(=O)NC(C)c2ccc3c(c2)OCCCO3)c2ccccc12` (stereo unspecified) returned an RP-LC retention time of 835 s.

The compound `CCOc1ccc2ncc(S(=O)(=O)c3ccc(OC)cc3)c(N3CCOCC3)c2c1` gave an RP-LC retention time of 919 s.

`COc1ccc(OC)c(S(=O)(=O)N2CCCC(C(=O)NC3CC3)C2)c1` (stereo unspecified) displayed an RP-LC retention time of 710 s.

`Cc1sc(-c2noc(C3CCC3)n2)cc1S(=O)(=O)N1CCC(C(=O)N2CCOCC2)CC1` yielded an RP-LC retention time of 948 s.

`CC(C)c1nccn1C1CN(C(=O)C2CCCCC2)C1` yielded an RP-LC retention time of 594 s.

As for `CCNC(=O)c1cc(C)on1`, the RP-LC retention time worked out at 596 s.

Take `Cc1nn2c(CNC(=O)c3ccc(F)cc3)c(-c3ccccc3)nc2s1`: the RP-LC retention time stood at 840 s.

`COCCCNC(=O)C1CC(=O)N(c2n[nH]c3cccc(F)c23)C1` (stereo unspecified) gave an RP-LC retention time of 638 s.

For `Cc1ccc(CNC(=O)c2cn3cccc(C)c3n2)cc1`, the RP-LC retention time was found to be 686 s.

Turning to `O=S(=O)(c1cccc(Cl)c1)N1CCN(c2cnn3cnnc3c2)CC1`, the RP-LC retention time came to 703 s.

Compound `CCCC1c2nccn2CCCN1C(=O)c1ccoc1C` (stereo unspecified) showed an RP-LC retention time of 592 s.

On to `O=C(CN1C(=O)CC(c2ccccc2)S(=O)(=O)c2ccccc21)Nc1cccc(F)c1` (stereo unspecified), for which the RP-LC retention time was 863 s.

The compound `Cc1cc2nn(CC(=O)Nc3ccc4c(c3)OCCO4)c(=O)n2c(-c2ccc(F)cc2)n1` registered an RP-LC retention time of 783 s.

In turn, `O=C(NCCN1CCOCC1)c1ccc(-c2ccc(N3CCCCCC3)nc2)cc1` gave an RP-LC retention time of 566 s.

Compound `CCOC(=O)c1c(C)n(C)c2ccc(OCC(O)CN3CCCCC3)cc12` (stereo unspecified) showed an RP-LC retention time of 643 s.

Regarding `O=C(NCc1ccc2c(c1)OCO2)c1cn2c(n1)CCCC2`, the RP-LC retention time was found to be 581 s.

Take `O=c1ccc(-c2ccc3c(c2)OCO3)nn1CCc1nc(-c2ccc(F)c(Br)c2)no1`: the RP-LC retention time turned out to be 1030 s.

For the compound `CC(C)N1CCC(CC(=O)N2CCc3c(c(-c4nc(C5CC5)no4)nn3C)C2)CC1`, the RP-LC retention time came out at 612 s.

Take `Cc1cc(C(=O)NCCN2CCCCCC2)c2c(=O)n(C)c(=O)n(C)c2n1`: the RP-LC retention time turned out to be 592 s.

The compound `Cc1cccc(-c2nc(C3CCN(S(=O)(=O)c4ccccc4F)CC3)no2)c1` registered an RP-LC retention time of 1160 s.

`Cc1cccc(-c2nc(C3CCN(S(=O)(=O)c4ccccc4)CC3)no2)c1` displayed an RP-LC retention time of 1150 s.

As to `O=C(c1cccc(Br)c1)N1CCC(n2c(-c3ccoc3)nc3cccnc32)C1` (stereo unspecified), the RP-LC retention time stood at 775 s.

In turn, `O=C(Nc1ccc(Cl)cc1)c1oc2ccccc2c1NC(=O)C1CC1` came in with an RP-LC retention time of 1080 s.

`CCOc1ccc(-n2nnc(-c3nc(-c4ccc(C(C)C)cc4)cs3)c2N)cc1` came in with an RP-LC retention time of 1350 s.

For `CCOC(=O)c1ccc(NC(=O)C23CCC(C)(C(=O)C2)C3(C)C)cc1` (stereo unspecified), the RP-LC retention time came out at 897 s.

For the compound `COc1ccc(NC(=O)CN2CCc3[nH]c4c(C)cc(F)cc4c(=O)c3C2)c(OC)c1`, the RP-LC retention time stood at 631 s.

`CSc1ccccc1C(=O)N1CCC(C(=O)NCc2nc(C)no2)CC1`: the RP-LC retention time stood at 628 s.

`COc1ccc(C(=O)N(CC(=O)N(Cc2ccco2)CC2CCCO2)C(C)(C)C)cc1` (stereo unspecified): the RP-LC retention time worked out at 862 s.

Turning to `CC(C)CC(=O)N1CCc2nc(-c3ccccc3)ncc2C1`, the RP-LC retention time came out at 868 s.

Compound `CCn1ccc(C(=O)NC2CC2)n1` had an RP-LC retention time of 619 s.

For `Cc1ccc(-n2ncc3c(=O)n(Cc4nc(-c5cccc(Br)c5)no4)cnc32)cc1`, the RP-LC retention time came out at 1180 s.

As for `CC(C)c1nc(-n2cccc2)sc1C(=O)Nc1ccccc1F`, the RP-LC retention time came to 1270 s.

In turn, `CC1CCN(c2cc(-n3cnc(C(=O)Nc4ccc5c(c4)OCCO5)c3)ncn2)CC1` came in with an RP-LC retention time of 1030 s.

For `COc1cc(NC(=O)CCc2c(-c3ccc(Cl)cc3)nc3ccccn23)cc(OC)c1OC`, the RP-LC retention time was found to be 642 s.

`CCC(C)NC(=O)Cn1c(=O)n(CCCCC(=O)NC2CCCC2)c(=O)c2ccccc21` (stereo unspecified) showed an RP-LC retention time of 736 s.

`CC1CCC2(CC1)NC(=O)N(CC(=O)Nc1ccccc1Cl)C2=O` (stereo unspecified) had an RP-LC retention time of 858 s.

Consider `O=C(NCCc1c[nH]c2ccccc12)C1CC(=O)N(Cc2ccccc2)C1` (stereo unspecified), for which the RP-LC retention time is 736 s.

Take `COC(=O)c1cc(S(=O)(=O)N2CCCC2C(=O)Nc2ccccc2F)cn1C` (stereo unspecified): the RP-LC retention time came to 844 s.

As to `CCOC(=O)c1csc(NC(=O)c2ccn(CC)n2)n1`, the RP-LC retention time was 702 s.

For the compound `O=C(Cn1cccc1-c1nnc(C2CCC2)o1)N1CCN(Cc2ccc3c(c2)OCO3)CC1`, the RP-LC retention time was determined as 688 s.

For the compound `CCOc1ccc(-n2nnc(-c3nc(C)c(C(=O)N4CCC(C(N)=O)CC4)s3)c2C)cc1`, the RP-LC retention time worked out at 719 s.

`O=C(NC1CCN(Cc2ccccc2)CC1)c1ccc2nc3ccc(Cl)cc3c(=O)n2c1` displayed an RP-LC retention time of 665 s.

With `CCc1ccc(NC(=O)Nc2cnn(-c3ncc(N4CCCC4)cn3)c2)cc1`, the RP-LC retention time is 880 s.

As to `Cc1nc(C2(C)CCN(S(=O)(=O)c3ccc(Cl)cc3C)CC2)no1`, the RP-LC retention time is 1040 s.

`Cc1nn(CC(=O)NCCN2CCCC2)c(=O)c2cc(-c3ccccc3)nn12` yielded an RP-LC retention time of 631 s.

In turn, `c1ccc(CNc2nc(-c3ccncc3)nc3c2CCC3)nc1` yielded an RP-LC retention time of 555 s.

The compound `COc1cccc(C(=O)N2CCN(c3cc(-c4cccs4)[nH]n3)CC2)c1OC` registered an RP-LC retention time of 722 s.

Consider `Cc1nn(CC(=O)NCCCN2CCCC2)c(=O)c2nn(-c3ccccc3)c(C)c12`, for which the RP-LC retention time was determined as 597 s.

For the compound `Cc1noc(C)c1S(=O)(=O)N1CCC(CC(=O)NCCc2c[nH]c3ccccc23)CC1`, the RP-LC retention time stood at 816 s.

`O=C(CC1CCCN(c2cnn(CC3CC3)c(=O)c2)C1)N1CCSCC1` (stereo unspecified) gave an RP-LC retention time of 740 s.

In the case of `CCc1ccccc1NC(=O)Cn1nc(N2CCCC(C)C2)c2ccccc2c1=O` (stereo unspecified), the RP-LC retention time was found to be 1180 s.

As to `COc1ccc(Cn2c(=O)c3sccc3n(Cc3nc(-c4cccc(C)c4)no3)c2=O)cc1`, the RP-LC retention time was 1160 s.

Compound `CCc1ccc(OCC(=O)Nc2nnc(C3CC(=O)N(c4ccc(F)cc4)C3)o2)cc1` (stereo unspecified) showed an RP-LC retention time of 849 s.

Compound `COc1ccc(N2CC(c3noc(-c4ccc(F)cc4)n3)CC2=O)cc1OC` (stereo unspecified) came in with an RP-LC retention time of 856 s.

For the compound `Cn1c(C(O)c2ccccc2)nc2ccccc21` (stereo unspecified), the RP-LC retention time was determined as 545 s.

Compound `O=S(=O)(Cc1ccccc1)N1CCC(Cc2nncn2-c2ccccc2)CC1` showed an RP-LC retention time of 1080 s.

`COCCCNC(=O)C1CCCN(c2nc3ccc(Cl)cc3[nH]2)C1` (stereo unspecified): the RP-LC retention time was determined as 610 s.

For the compound `c1ccc(CN2CCCC(OCc3nc(-c4ccncc4)no3)C2)nc1` (stereo unspecified), the RP-LC retention time was found to be 577 s.

Take `CC1CCN(C(=O)CN2C(=O)COc3ccc(C(=O)N4CCCC4)cc32)CC1`: the RP-LC retention time was determined as 698 s.

As for `COCCN1CC2(CCN(S(=O)(=O)c3ccc(F)cc3F)CC2)C1c1ccncc1` (stereo unspecified), the RP-LC retention time worked out at 623 s.

For the compound `Cc1ccc2c(c1)NN=C(C(=O)N1CCC(C)CC1)S2(=O)=O`, the RP-LC retention time was determined as 809 s.

In turn, `Cc1ccc(-c2noc(CN3C(=O)COc4ccccc43)n2)cc1C` gave an RP-LC retention time of 1110 s.

As to `COc1cccc(C2Cn3nnc(-c4nc(-c5cccc(F)c5)no4)c3CO2)c1` (stereo unspecified), the RP-LC retention time amounted to 1130 s.

`O=C(CCCN1CCN(Cc2ccc(F)cc2)C(=O)C1=O)NCc1ccc(F)cc1` returned an RP-LC retention time of 721 s.
